Results on one molecule are retold here after patent US20240300913A1, “FLAVONE DERIVATIVE AND USE THEREOF FOR IMPROVING PULMONARY FIBROSIS” (A-CHEMBIO CO., LTD, priority 2023, published 2024).

Each structure is given as a SMILES string. Where only a bound is given, the exact number is not on record here.

For orientation: cell viability means a read-out of living cells in per cent, often relative to untreated cells. A lower cell viability goes with more harm to the cells.

For series [1], the system named is A549 cells. Kind of series: MTT cytotoxicity evaluation in A549 cells. Format: cell-based. To be noted: all treatment concentrations up to 20 μM, incubated for 24, 48, and 72 hours, compared to untreated control. How it is done: To confirm the effect of novel flavone derivative I on cell viability, A549 cells, derived from lung cancer, were used to examine cell viability with MTT [3-(4,5-dimethylthiazol-2-yl)-2,5-diphenyltetrazolium bromide]. After being suspended in a medium, A549 cells were dispensed into a 96-well plate and incubated for 24 hours. After 24 hours, 200 μL of a medium containing 0 to 20 μM BGC was added to each well of the plate and incubated for 24 or 48 hours. After incubation, MTT was diluted (0.5 mg/ml) in phosphate-buffered saline (PBS). Then, 20 μL of the diluted MTT was dispensed into each well, and incubation was performed in a CO2 incubator for 4 hours. After 4 hours, the MTT solution was removed, and 200 μL of dimethyl sulfoxide (DMSO) was dispensed into each well to dissolve the formazan precipitate for 5 minutes. Next, the absorbance was measured at 595 nm.
(§1) Cytotoxicity tests of novel flavone derivative II (Achem II) on A549 cells, HULEC-5a cells, and HLF cells were performed in the same manner as in Example 1 above, using the MTT assay. The results thereof are shown in FIGS. 17 to 19 as cell viability (%) after 24, 48, and 72 hours compared to that of the control group, the untreated sample group.
(§2) Cytotoxicity tests of novel flavone derivative III (Achem III) on A549 cells, HULEC-5a cells, and HLF cells were performed in the same manner as in Example 1 above, using the MTT assay. The results thereof are shown in FIGS. 27 to 29 as cell viability (%) after 24, 48, and 72 hours compared to that of the control group, the untreated sample group.

For series [2], the system named is HULEC-5a cells. Kind of series: MTT cytotoxicity evaluation in HULEC-5a cells. In kind it is cell-based, human. Conditions: compared to untreated control. The method, then:
(§3) To confirm the effect of novel flavone derivative I on cell viability, HULEC-5a, human lung microvascular endothelial cells, were used to examine cell viability with MTT [3-(4,5-dimethylthiazol-2-yl)-2,5-diphenyltetrazolium bromide]. After being suspended in a medium, HULEC-5a cells were dispensed into a 96-well plate and incubated for 24 hours. […] After incubation, all media was removed, and MTT was diluted (0.5 mg/mL) in phosphate-buffered saline (PBS). Then, 200 μL of the diluted MTT was dispensed into each well, and incubation was performed in a CO2 incubator for 4 hours. After 4 hours, the MTT solution was removed, and 160 μL of dimethyl sulfoxide (DMSO) was dispensed into each well to dissolve the formazan precipitate for 30 minutes. Next, the absorbance was measured at 570 nm.
as §1, §2

Series [3] relates to HLF cells. Nature of the series: MTT cytotoxicity evaluation in HLF cells. Format: cell-based, human. Conditions: concentrations of 15 and 20 μM, incubated for 24 hours, compared to untreated control. How it is done:
as §3, with “viability,” for “viability, HULEC-5a,”, “fibroblasts (HLF)” for “microvascular endothelial cells,”, “HLF” for “HULEC-5a”
as §1, §2

Series [4] concerns A549 cells. Nature of the series: Effect upon TGF-β1 treatment in A549 cells (western blot of protein levels). Format: cell-based. Conditions: 5 ng/mL TGF-β1 and compound, 24 hours, FIG. 30. The method, then: 3.5*10^5 A549 cells, derived from lung cancer, were suspended in a medium, dispensed into a 60-mm plate, and incubated for 48 hours. After 48 hours of incubation, each plate was treated with TGF-β1 (10 ng/ml) alone or in combination with novel flavone derivative I at varying concentrations or a predetermined concentration and/or nintedanib (NIDB), a therapeutic drug for idiopathic pulmonary fibrosis and interstitial lung disease as a positive control. […] Next, only the supernatant was collected by centrifugation (at 14,000 rpm for 10 minutes) at 4° C., and the proteins were separated by SDS-polyacrylamide gel electrophoresis (SDS-PAGE). The separated proteins were transferred to a polyvinylidene difluoride membrane (PVDF membrane), reacted in 5% nonfat dry milk for 3 hours, and then reacted with primary antibodies at 4° C. for 12 hours. After 12 hours, the proteins further reacted with secondary antibodies corresponding to the respective primary antibodies. Then, the protein band was examined, according to the manufacturer's protocol, using an ECL kit.
The effect of novel flavone derivative II upon TGF-β1 treatment in A549 cells was evaluated in the same manner as in Example 1 above. FIGS. 20 and 21 show the results thereof.
The effect of novel flavone derivative III upon TGF-β1 treatment in A549 cells was evaluated in the same manner as in Example 1 above.
(Immunoblotting shows a protein as a band on a membrane.)

For series [5], the system named is HULEC-5a cells. Kind of series: Effect upon TGF-β1 treatment in Hulec-5a cells (western blot of protein levels). Format: cell-based, human. Conditions: Hulec-5a cells, 5 ng/mL TGF-β1 and compound, 24 hours, FIG. 31. How it is done:
(§4) 1.2×10^6 Hulec-5a cells, derived from pulmonary vessels, were suspended in a medium, dispensed into a 100-mm plate, and incubated for 24 hours. After 24 hours of incubation, each plate was treated with TGF-β1 (10 ng/ml) alone or in combination with novel flavone derivative I at varying concentrations or a predetermined concentration and/or nintedanib (NIDB), a therapeutic drug for idiopathic pulmonary fibrosis and interstitial lung disease. After 3, 24, and 48 hours of incubation, the cells were lysed with RIPA lysis buffer ([50 mM Tris]-Cl (pH, 7.4), 1% NP-40, 150 mM NaCl, 1 mM EDTA, and 1 mM phenylmethylsulfonyl fluoride (PMSF)) containing MG-132 (10 μM, proteasome inhibitor, protect the HIF-1α subunit from proteasome degradation). Next, only the supernatant was collected by centrifugation (at 13,000 rpm for 7 minutes) at 4° C., and the proteins were separated by SDS-polyacrylamide gel electrophoresis (SDS-PAGE). The separated proteins were transferred to a polyvinylidene difluoride membrane (PVDF membrane), reacted in 5% nonfat dry milk for 2 hours, and then reacted with primary antibodies at 4° C. overnight. After overnight, the proteins further reacted with secondary antibodies corresponding to the respective primary antibodies. Then, the protein band was examined, according to the manufacturer's protocol, using an ECL kit.
The effect of novel flavone derivative II upon TGF-β1 treatment in Hulec-5a cells was evaluated in the same manner as in Example 1 above.
The effect of novel flavone derivative III upon TGF-β1 treatment in Hulec-5a cells was evaluated in the same manner as in Example 1 above.

Series [6] relates to HLF cells. Kind of series: Effect upon TGF-β1 treatment in HLF cells (western blot of protein levels). Conditions: 5 ng/mL TGF-β1 and compound, 24 hours, FIG. 32. Format: cell-based, human. The method, then:
as §4, with “After suspending 5×10^6 human lung fibroblast (HLF) cells in a medium, […]” for “1.2×10^6”, “[…]” for “in a”, “hours. […]” for “hours.”, “24” for “24 hours of incubation, each plate was treated with TGF-β1 (10 ng/ml) alone or in combination with novel flavone derivative I at varying concentrations or a predetermined concentration and/or nintedanib (NIDB), a therapeutic drug for idiopathic pulmonary fibrosis and interstitial lung disease. After 3, 24,”
The effect of novel flavone derivative II upon TGF-β1 treatment in HLF cells was evaluated in the same manner as in Example 1 above.
The effect of novel flavone derivative III upon TGF-β1 treatment in HLF cells was evaluated in the same manner as in Example 1 above.

`COc1ccc(-c2c(-c3ccc(O)c(OC)c3)oc3cc(OC)c(OC)cc3c2=O)cc1` [novel flavone derivative III, 2-(4-hydroxy-3-methoxyphenyl)-6,7-dimethoxy-3-(4-methoxyphenyl)-4H-chromen-4-one]: the cell viability in series [1] is recorded as at least 80%; in series [2] (concentration of 20 μM, incubated for 24 hours), at most 80%; in series [2] (concentrations up to 15 μM, incubated for 24, 48, and 72 hours), at least 80%; in series [3], at most 80%. Further, the “levels of fibronectin, COL4, and COL3, increased by TGF-β1 treatment” value in series [4] and in series [5] was “decreased” each time. Besides, the “levels of fibronectin, COL4, COL1, α-SMA, HIF-1α, and NOX2, increased by TGF-β1 treatment” value in series [6] is recorded as “decreased”.
